In patent publication US8058242B2, “Chimeric proteins with natriuretic activity” (The University of Queensland, priority 2004, dated 2011):
Positions of bridges follow the written chain, without caps; N, C: chain ends. Residues, ends and D or L forms follow the SMILES beside them.

Tests used:
[1] = molecular target: T1, NPR-A signaling in HeLa cells (Homo sapiens, UniProt P16066); experiment: cGMP AlphaScreen assay in HeLa cells (Examples 14, 15); format: cell-based; conditions: 30 minutes at 37° C.
T1 construct: Cyclic GMP (cGMP) elevation in HeLa cells in response to Natriuretic Peptide stimulation; endogenous in cells; host or cells: HeLa cells
T1 sequence (P16066 33-1061): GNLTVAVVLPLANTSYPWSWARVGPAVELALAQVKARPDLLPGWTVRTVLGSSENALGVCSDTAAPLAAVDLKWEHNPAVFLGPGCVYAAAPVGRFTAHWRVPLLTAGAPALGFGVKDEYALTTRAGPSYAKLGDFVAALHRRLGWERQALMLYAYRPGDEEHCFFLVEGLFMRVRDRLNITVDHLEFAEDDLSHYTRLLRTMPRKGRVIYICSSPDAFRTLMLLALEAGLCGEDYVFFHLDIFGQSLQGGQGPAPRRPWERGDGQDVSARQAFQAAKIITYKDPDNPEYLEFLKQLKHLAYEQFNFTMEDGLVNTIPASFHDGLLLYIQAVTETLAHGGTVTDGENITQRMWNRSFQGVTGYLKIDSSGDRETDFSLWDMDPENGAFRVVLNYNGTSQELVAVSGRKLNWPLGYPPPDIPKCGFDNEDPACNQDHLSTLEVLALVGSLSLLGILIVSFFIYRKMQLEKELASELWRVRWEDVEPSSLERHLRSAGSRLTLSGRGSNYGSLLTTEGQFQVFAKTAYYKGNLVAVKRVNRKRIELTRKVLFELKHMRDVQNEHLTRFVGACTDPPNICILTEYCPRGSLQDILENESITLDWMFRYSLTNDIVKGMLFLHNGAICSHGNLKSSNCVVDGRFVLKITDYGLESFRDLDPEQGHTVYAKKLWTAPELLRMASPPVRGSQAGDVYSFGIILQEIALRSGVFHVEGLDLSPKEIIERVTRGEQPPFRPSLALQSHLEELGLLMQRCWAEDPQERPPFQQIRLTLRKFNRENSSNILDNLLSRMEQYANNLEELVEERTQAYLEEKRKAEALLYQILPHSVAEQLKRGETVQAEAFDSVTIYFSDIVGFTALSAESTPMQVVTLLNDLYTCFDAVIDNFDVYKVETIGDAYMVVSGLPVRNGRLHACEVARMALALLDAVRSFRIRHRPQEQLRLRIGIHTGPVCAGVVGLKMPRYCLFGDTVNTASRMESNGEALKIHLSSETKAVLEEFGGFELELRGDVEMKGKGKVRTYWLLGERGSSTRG
Description: HeLa cells were maintained in RPMI cell culture medium (Gihco Invitrogen, Mt Waverley, Australia) supplemented with 10% Foetal Bovine Serum (Cambrex Bio Science, Rockland, USA). Upon reaching confluence, cells were sub-cultured such that they would be 70-90% confluent at time of assay.
Cyclic GMP (cGMP) elevation in HeLa cells in response to Natriuretic Peptide stimulation was performed using a cGMP AlphaScreen kit (PerkinElmer, Boston, USA), as follows for normal experiments: Cells were detached, pelleted to remove growth medium, and resuspended in Stimulation Buffer (Hank's Balanced Salt Solution, 0.1% Bovine Serum Albumin [BSA] (Sigma-Aldrich, Castle Hill, Australia), 1 mM 3-Isobutyl-1-methylxanthine [IBMX] (Sigma-Aldrich, Castle Hill, Australia)) and diluted to 6×10^6 cells per mL (30 000 cells per 5 μL). 5 μL of cells were added to wells of white 384-well OptiPlates (PerkinElmer, Boston, USA), and stimulated with increasing concentrations of peptide for 30 minutes at 37° C. Cells were then lysed with 10 μL Lysis buffer (dH2O, 0.3% Tween-20 (Sigma-Aldrich, Castle Hill, Australia), 5 mM HEPES (JRH Biosciences, Kansas, USA) and 0.1% BSA) and 5 μL acceptor bead mix (10 μL per mL acceptor beads and 1/3000 anti-cGMP antibody (BioVision, Mountain View, USA) in lysis buffer) added per well in the dark. Plates were incubated in the dark at room temperature for 30 minutes, then 5 μL donor bead mix (10 μL per ML donor beads and 0.3 nM biotinylated cGMP in lysis buffer) was added per well in the dark and the plate incubated overnight at room temperature. Signal was read using an EnVision plate reader (PerkinElmer, Boston, USA) and data analysed using Prism software. The cGMP standard curve was performed as per manufacturer's instructions.
To examine whether TNPc and synthetic analogs produced in the inventors' laboratory could stimulate NPR-A signaling, cGMP elevations in HeLa cells in response to these peptides were measured, as described above.

[2] = system: conscious normotensive rabbits; experiment: Blood pressure and heart rate in conscious normotensive rabbits, intravenous bolus of TDT analogs (Example 17); conditions: i.v. bolus 0.24 mg/kg; for MAP, mean difference from control: at MAP minimum
[3] = −Log10EC50 (pEC50) ± Standard Error, cGMP accumulation in HeLa cells

SMILES	EC50 ([1]; EC50, cGMP accumulation in HeLa cells) [nM]	EC50 [1, 3] [nM]	HR, mean difference from control [2]	time after administration at which the MAP effect occurred, on average [2] [min]	MAP, mean difference from control [2] [mmHg]
CC[C@H](C)[C@H](NC(=O)[C@H](CCCCN)NC(=O)[C@H](CO)NC(=O)[C@H](CC(=O)O)NC(=O)[C@@H](N)CO)C(=O)NCC(=O)N[C@@H](CC(N)=O)C(=O)NCC(=O)N[C@H]1CSSC[C@@H](C(=O)N[C@@H](CC(N)=O)C(=O)N[C@@H](CCCNC(=N)N)C(=O)N[C@H](C(=O)N[C@@H](CCSC)C(=O)N[C@@H](CCC(N)=O)C(=O)N[C@@H](CC(N)=O)C(=O)N2CCC[C@H]2C(=O)N2CCC[C@H]2C(=O)N[C@@H](CCCCN)C(=O)N[C@@H](CCCCN)C(=O)N[C@@H](Cc2ccccc2)C(=O)N[C@@H](CO)C(=O)NCC(=O)N[C@@H](CCC(=O)O)C(=O)O)[C@@H](C)CC)NC(=O)CNC(=O)[C@H](CC(C)C)NC(=O)[C@H](CC(N)=O)NC(=O)[C@H](CO)NC(=O)[C@H](C)NC(=O)[C@H](Cc2c[nH]cn2)NC(=O)[C@H](CC(N)=O)NC(=O)[C@H]([C@@H](C)CC)NC(=O)[C@H](CCCNC(=N)N)NC(=O)[C@H](CC(=O)O)NC(=O)[C@H]([C@@H](C)CC)NC(=O)[C@H](CCCCN)NC(=O)[C@H](Cc2c[nH]cn2)NC(=O)CNC(=O)[C@H](Cc2ccccc2)NC1=O [V20A-TDT] (H-SDSKIGNGCFGHKIDRINHASNLGCNRIMQNPPKKFSGE-OH; disulfide 9-25)	455	382	–	–	–
CC[C@H](C)[C@H](NC(=O)[C@H](CCCCN)NC(=O)[C@H](CO)NC(=O)[C@H](CC(=O)O)NC(=O)[C@@H](N)CO)C(=O)NCC(=O)N[C@@H](CC(N)=O)C(=O)NCC(=O)N[C@H]1CSSC[C@@H](C(=O)N[C@@H](CC(N)=O)C(=O)N[C@@H](CCCNC(=N)N)C(=O)N[C@H](C(=O)N[C@@H](CCSC)C(=O)N[C@@H](CCC(N)=O)C(=O)N[C@@H](CC(N)=O)C(=O)N2CCC[C@H]2C(=O)N2CCC[C@H]2C(=O)N[C@@H](CCCCN)C(=O)N[C@@H](CCCCN)C(=O)N[C@@H](Cc2ccccc2)C(=O)N[C@@H](CO)C(=O)NCC(=O)N[C@@H](CCC(=O)O)C(=O)O)[C@@H](C)CC)NC(=O)CNC(=O)[C@H](CC(C)C)NC(=O)[C@H](CC(N)=O)NC(=O)[C@H](CO)NC(=O)[C@H](C(C)C)NC(=O)[C@H](Cc2c[nH]cn2)NC(=O)[C@H](CC(N)=O)NC(=O)[C@H]([C@@H](C)CC)NC(=O)[C@H](CCCNC(=N)N)NC(=O)[C@H](CC(=O)O)NC(=O)[C@H]([C@@H](C)CC)NC(=O)[C@H](CCCCN)NC(=O)[C@H](CCCNC(=N)N)NC(=O)CNC(=O)[C@H](Cc2ccccc2)NC1=O [H12R-TDT]	–	–	−7±5 b/min	97	−9.2±2.2
CC[C@H](C)[C@H](NC(=O)[C@H](CCCCN)NC(=O)[C@H](CO)NC(=O)[C@H](CC(=O)O)NC(=O)[C@@H](N)CO)C(=O)NCC(=O)N[C@@H](CC(N)=O)C(=O)NCC(=O)N[C@H]1CSSC[C@@H](C(=O)N[C@@H](CC(N)=O)C(=O)N[C@@H](CCCNC(=N)N)C(=O)N[C@H](C(=O)N[C@@H](CCSC)C(=O)N[C@@H](CCC(N)=O)C(=O)N[C@@H](CC(N)=O)C(=O)N2CCC[C@H]2C(=O)N2CCC[C@H]2C(=O)N[C@@H](CCCCN)C(=O)N[C@@H](CCCCN)C(=O)N[C@@H](Cc2ccccc2)C(=O)N[C@@H](CO)C(=O)NCC(=O)N[C@@H](CCC(=O)O)C(=O)O)[C@@H](C)CC)NC(=O)CNC(=O)[C@H](CC(C)C)NC(=O)CNC(=O)[C@H](CO)NC(=O)[C@H](C(C)C)NC(=O)[C@H](Cc2c[nH]cn2)NC(=O)[C@H](CC(N)=O)NC(=O)[C@H]([C@@H](C)CC)NC(=O)[C@H](CCCNC(=N)N)NC(=O)[C@H](CC(=O)O)NC(=O)[C@H]([C@@H](C)CC)NC(=O)[C@H](CCCCN)NC(=O)[C@H](Cc2c[nH]cn2)NC(=O)CNC(=O)[C@H](Cc2ccccc2)NC1=O [N22G-TDT] (H-SDSKIGNGCFGHKIDRINHVSGLGCNRIMQNPPKKFSGE-OH; disulfide 9-25)	–	3.14	little effect on HR	140	−17.4±7.6
